Measured values reported in patent publication US5661153A, “1-arylpyrimidine derivatives and pharmaceutical use thereof” (Japan Energy Corporation, priority 1994, dated 1997).
Where two headings read alike, the source gives them in different places.

What was measured:
[1] = system: passive cutaneous anaphylaxis (PCA) reaction; assay: Inhibiting effect on a 48 hour PCA reaction (test method for compound prepared in Example 1); type: in vivo, male Wistar strain rats; details: dye leakage
Experimental: (§1) Eight-weeks old male Wistar strain rats were immunized by subcutaneously injecting 0.05 ml of 50-fold diluted DNP-Ascaris antiserum (titer=1:64) at four positions on the dorsum. Forty-eight hours after the immunization, 1 ml of a 0.5% Evans blue solution containing 1 mg of DNP-Ascaris antigen was administered into a tail vein to induce a PCA reaction. Thirty minutes after the induction, the rats were bled to death and blue circular parts appearing at the immunized positions were excised. The dye was extracted from the blue circular parts with ethyl acetate and the amount of the dye leakage was determined. A test substance was suspended in a 0.5% CMC-Na solution and administered orally to each rat 1 hour before the induction.
(§2) Using a reference group to which only a 0.5% CMC-Na solution was administered orally, a reference value for the amount of dye leakage was obtained. The percent inhibition was determined as 100% when the amount of dye leakage was zero and as 0% when the amount of dye leakage was equal to the reference value. On the basis of these criteria, the percent inhibition of each test substance was calculated at varying doses.

[2] = system: picryl chloride-induced type IV allergy; assay: Inhibiting effect on a picryl chloride-induced type IV allergy (1-aryluracil derivatives); type: in vivo, male ICR strain mice; details: Mus musculus, po, read-out: Percent Inhibition; for inhibition in vivo at 100 mg/kg: 100 mg/kg orally twice (just after induction and 16 hours after)
Experimental: (§3) The abdomen of 6-weeks old male ICR strain mice was shaven and 0.1 ml of a 7% picryl chloride solution in acetone was applied to the epithelium of the abdomen for immunization. After one week, 5 μl of a 1% picryl chloride solution in olive oil was applied to both sides of the left auricula to induce an allergy reaction. A given amount of a test substance was suspended in a 0.5% CMC-Na solution and the resulting suspension was administered orally to each mouse twice, i.e., just after the induction and 16 hours after. The thickness of the left auricula was measured both before the induction and 24 hours after.
as §2, with “The difference between the thickness of the left auricula before the induction and the value measured 24 hours after was calculated as the increase in thickness. Using” for “Using”, “increase in thickness” for “amount of dye leakage”

[3] = Toxicity Test (Experimental Example 1, 1-aryluracil derivatives); type: in vivo, male SD rats; details: 1,000 mg/kg orally once a day for 2 consecutive weeks
Experimental: (§4) A test substance was suspended in a 0.5% CMC-Na solution and administered orally to 6-weeks old male SD rats once a day at a dose of 1,000 mg/kg for 2 consecutive weeks. The weight of each rat was measured both before the administration and every day during the administration. A given amount of blood was collected on the day after the end of the administration period and examined. Collected urine was also examined. In addition, organs were checked for any aberrations by autopsy.

[4] = system: passive cutaneous anaphylaxis (PCA) reaction; assay: Inhibiting effect on a 48 hour PCA reaction (test method for compound prepared in Example 22); type: in vivo, male Wistar strain rats; details: 100 mg/kg orally 30 minutes before the induction; dye leakage
Experimental: as §1, with “0.1” for “0.05”, “700-fold” for “50-fold”, “(titer=1:1024)” for “(titer=1:64)”, “two” for “four”, “pedal” for “tail”, “at a dose of 100 mg/kg 30 minutes” for “1 hour”
as §2

[5] = system: picryl chloride-induced type IV allergy; assay: Inhibiting effect on a picryl chloride-induced type IV allergy (3-arylpurine derivatives); type: in vivo, male ICR strain mice; details: left auricula thickness at 24 hours
Experimental: as §3
as §2, with “The difference between the thickness of the left auricula before the induction and the value measured 24 hours after was calculated as the increase in thickness. Using” for “Using”, “increase in thickness” for “amount of dye leakage”

[6] = Toxicity Test (Experimental Example 2, 3-arylpurine derivatives); type: in vivo, male SD rats; details: 1,000 mg/kg orally once a day for 2 consecutive weeks
Experimental: as §4

[7] = 10 mg/kg orally twice (just after induction and 16 hours after), left auricula thickness at 24 hours
[8] = left auricula thickness at 24 hours
[9] = 10 mg/kg orally twice (just after induction and 16 hours after)
[10] = 100 mg/kg orally twice (just after induction and 16 hours after)

## Cn1c(=O)c(NC(=O)c2cc(C(C)(C)C)c(O)c(C(C)(C)C)c2)c(N)n(-c2ccccc2)c1=O [Example 1, 6-Amino-5-(3,5-di-tert-butyl-4-hydroxyphenyl)carboxyamido-3-methyl-1-phenyluracil]
[1]; 3 mg/kg orally 1 hour before the induction
  Percent Inhibition: 33%
[1]; 30 mg/kg orally 1 hour before the induction
  Percent Inhibition: 49%
[2]; [7]
  inhibition in vivo at 10 mg/kg: 54%

## Cn1c(=O)c(NC(=O)c2cc(C(C)(C)C)c(O)c(C(C)(C)C)c2)c(N)n(-c2ccc(F)cc2)c1=O [Example 2, 6-Amino-5-(3,5-di-tert-butyl-4-hydroxyphenyl)carboxyamido-1-(4-fluorophenyl)-3-methyluracil]
[2]; 3 mg/kg orally twice (just after induction and 16 hours after), left auricula thickness at 24 hours
  inhibition in vivo at 3 mg/kg: 38%

## Cc1ccc(-n2c(N)c(NC(=O)c3cc(C(C)(C)C)c(O)c(C(C)(C)C)c3)c(=O)n(C)c2=O)cc1 [Example 3, 6-Amino-5-(3,5-di-tert-butyl-4-hydroxyphenyl)carboxyamido-3-methyl-1-(4-methylphenyl)uracil]
[2]; [7]
  inhibition in vivo at 10 mg/kg: 33%

## COc1ccc(-n2c(N)c(NC(=O)c3cc(C(C)(C)C)c(O)c(C(C)(C)C)c3)c(=O)n(C)c2=O)cc1 [Example 4, 6-Amino-5-(3,5-di-tert-butyl-4-hydroxyphenyl)carboxyamido-1-(4-methoxyphenyl)-3-methyluracil]
[2]; [7]
  inhibition in vivo at 10 mg/kg: 35%

## CC(=O)Oc1cc(OC(C)=O)cc(C(=O)Nc2c(N)n(-c3ccccc3)c(=O)n(C)c2=O)c1 [Example 7, 6-Amino-5-(3,5-diacetoxyphenyl)carboxyamido-3-methyl-1-phenyluracil]
[3]
  autopsy: no abnormality was observed
  blood examination: no abnormality was observed
  death during the administration period: no rat died
  urine examination: no abnormality was observed
  weight change: no abnormality was observed
[2]; [7]
  inhibition in vivo at 10 mg/kg: 65%

## CC(=O)Oc1cc(OC(C)=O)cc(C(=O)Nc2c(N)n(-c3ccc(F)cc3)c(=O)n(C)c2=O)c1 [Example 8, 6-Amino-5-(3,5-diacetoxyphenyl)carboxyamido-1-(4-fluorophenyl)-3-methyluracil]
[2]; [7]
  inhibition in vivo at 10 mg/kg: 43%

## CCCn1c(=O)c(NC(=O)c2cc(OC(C)=O)cc(OC(C)=O)c2)c(N)n(-c2ccccc2)c1=O [Example 11, 6-Amino-5-(3,5-diacetoxyphenyl)carboxyamido-1-phenyl-3-propyluracil]
[2]; [8]
  inhibition in vivo at 100 mg/kg: 30%

## Cn1c(=O)c(NC(=O)c2cc(O)cc(O)c2)c(N)n(-c2ccccc2)c1=O [Example 14, 6-Amino-5-(3,5-dihydroxyphenyl)carboxyamido-3-methyl-1-phenyluracil]
[2]; [7]
  inhibition in vivo at 10 mg/kg: 45%

## CC(=O)Oc1cc(C(=O)Nc2c(N)n(-c3ccccc3)c(=O)n(C)c2=O)cc(OC(C)=O)c1OC(C)=O [Example 22, 6-Amino-3-methyl-1-phenyl-5-(3,4,5-triacetoxyphenyl)carboxyamidouracil]
[2]; [7]
  inhibition in vivo at 10 mg/kg: 48%
[2]; [8]
  inhibition in vivo at 100 mg/kg: 72%
[4]
  Percent Inhibition: 50%

## CC(=O)Oc1ccc(C(=O)Nc2c(N)n(-c3ccccc3)c(=O)n(C)c2=O)cc1OC(C)=O [Example 34, 6-Amino-5-(3,4-diacetoxyphenyl)carboxyamido-3-methyl-1-phenyluracil]
[2]; [7]
  inhibition in vivo at 10 mg/kg: 33%
[2]; [8]
  inhibition in vivo at 100 mg/kg: 52%

## Cn1c(=O)c(NC(=O)c2cc(=O)cco2)c(N)n(-c2ccccc2)c1=O [Example 51, 6-Amino-3-methyl-5-(4-oxo-4H-pyran-2-yl)carboxyamido-1-phenyluracil]
[2]; [7]
  inhibition in vivo at 10 mg/kg: 45%

## Cn1c(=O)c(NC(=O)c2ccc(=O)oc2)c(N)n(-c2ccccc2)c1=O [Example 52, 6-Amino-3-methyl-5-(2-oxo-2H-pyran-5-yl)carboxyamido-1-phenyluracil]
[2]; [7]
  inhibition in vivo at 10 mg/kg: 19%
[2]; [8]
  inhibition in vivo at 100 mg/kg: 39%

## COc1ccc(O)c(C(=O)Nc2c(N)n(-c3ccccc3)c(=O)n(C)c2=O)c1 [Example 53, 6-Amino-5-(2-hydroxy-5-methoxyphenyl)carboxyamido-3-methyl-1-phenyluracil]
[3]
  autopsy: no abnormality was observed
  blood examination: no abnormality was observed
  death during the administration period: no rat died
  urine examination: no abnormality was observed
  weight change: no abnormality was observed
[2]; [7]
  inhibition in vivo at 10 mg/kg: 45%

## COc1ccc(-n2c(N)c(NC(=O)c3cc(OC)ccc3OC(C)=O)c(=O)n(C)c2=O)cc1 [Example 55, 5-(2-Acetoxy-5-methoxyphenyl)carboxyamido-6-amino-1-(4-methoxyphenyl)-3-methyluracil]
[2]; [8]
  inhibition in vivo at 100 mg/kg: 35%

## CC1CCC(C(=O)Nc2c(N)n(-c3ccccc3)c(=O)n(C)c2=O)CC1 (centres unmarked) [Example 60, 6-Amino-3-methyl-5-(4-methylcyclohexyl)carboxyamido-1-phenyluracil]
[2]; [7]
  inhibition in vivo at 10 mg/kg: 40%

## Cn1c(=O)c(NC(=O)C2(C)CCCCC2)c(N)n(-c2ccccc2)c1=O [Example 61, 6-Amino-3-methyl-5-(1-methylcyclohexyl)carboxyamido-1-phenyluracil]
[2]; [8]
  inhibition in vivo at 100 mg/kg: 32%

## Cn1c(=O)c2[nH]c(-c3cc(C(C)(C)C)c(O)c(C(C)(C)C)c3)nc2n(-c2ccccc2)c1=O [Example 74, 8-(3,5-Di-tert-butyl-4-hydroxyphenyl)-1-methyl-3-phenylpurine-2,6-dione]
[5]; [9]
  Percent Inhibition: 38%
[6]
  autopsy: no abnormality was observed
  blood examination: no abnormality was observed
  death during the administration period: no rat died
  urine examination: no abnormality was observed
  weight change: no abnormality was observed

## COc1ccc(-n2c(=O)n(C)c(=O)c3[nH]c(-c4cc(C(C)(C)C)c(O)c(C(C)(C)C)c4)nc32)cc1 [Example 75, 8-(3,5-Di-tert-butyl-4-hydroxyphenyl)-3-(4-methoxyphenyl)-1-methylpurine-2,6-dione]
[5]; [9]
  Percent Inhibition: 16%
[5]; [10]
  Percent Inhibition: 34%

## Cn1c(=O)c2[nH]c(-c3ccc(O)c(O)c3)nc2n(-c2ccccc2)c1=O [Example 78, 8-(3,4-Dihydroxyphenyl)-1-methyl-3-phenylpurine-2,6-dione]
[5]; [9]
  Percent Inhibition: 35%

## CC(=O)Oc1cc(-c2nc3c([nH]2)c(=O)n(C)c(=O)n3-c2ccccc2)cc(OC(C)=O)c1OC(C)=O [Example 80, 1-Methyl-3-phenyl-8-(3,4,5-triacetoxyphenyl)purine-2,6-dione]
[5]; [9]
  Percent Inhibition: 37%
[5]; [10]
  Percent Inhibition: 53%

## C[C@]12C=CC(=O)C=C1CC[C@@H]1[C@@H]2[C@@H](O)C[C@@]2(C)[C@H]1CC[C@]2(O)C(=O)CO [Prednisolone, prednisolone, reference compound]
[5]; [9]
  Percent Inhibition: 67%
[2]; 24 h
  inhibition in vivo at 10 mg/kg: 77%

## COc1ccc(/C=C/C(=O)Nc2ccccc2C(=O)O)cc1OC [Tranilast, tranilast, reference compound]
[1]; 100 mg/kg orally 1 hour before the induction
  Percent Inhibition: 66%
[4]
  Percent Inhibition: 35%
